SMILES strings stand for the structures.

For assay [1], the system named is fatty acid binding protein 4 (FABP4). Description: Real Time-PCR, expression of differentiation marker FABP4 in 3T3-L1-cells. The assay is classed as cell-based, mouse. The note with it: fold induction compared to hormone mix stimulation (set equal to one). As to the method: 3T3-L1-cells (mouse embryonic fibroblast-like preadipocytes cell line) were propagated in Dulbecco's Modified Eagle Medium (DMEM), enriched with 10% newborn calf serum (CS) at 37° C. and 5% CO2 and seeded in 12-well plates for gene expression analysis. After reaching confluence at day −2, the differentiation was induced by changing medium at day 0 to DMEM with 10% fetal calf serum (FCS) containing a hormone mix (HM) of 1 μg/ml insulin, 0.25 μM dexamethasone (Dex) and 0.5 mM 3-isobutyl-1-methylxanthine (IBMX). Compounds of interest such as compound of formula (I) are applied from day −2 (confluence of the cells) until day 2 using various concentrations. Medium is renewed every other day. At day 2, medium consisting of DMEM, 10% FCS and 1 μg/ml insulin is added. From day 4 on, only DMEM containing 10% FCS is used for further cultivation of cells. […]
Total RNA from cell culture samples was isolated using RNeasy Total RNA Kits (Qiagen, Hilden; Germany). The RNA concentration and purity was determined photometrically using 260/280 ratios (Biophotometer, Eppendorf, Hamburg, Germany). […] At least three independent experiments were performed with 2 determinations each and the mean value of these was calculated. […] Each sample was analyzed in duplicate employing the universal protocol over 46 cycles. […]

The subject of assay [2] is 3T3-L1-cells (mouse embryonic fibroblast-like preadipocytes cell line). Description: Quantification of intracellular lipids (stimulation of adipogenesis), Nile Red. The assay is classed as cell-based. The arrangement: Stimulation of adipogenesis: unit not given here. Conditions: applied day −2 to day 2, Nile Red at day 10, vs hormone mix only. As to the method: 3T3-L1-cells (mouse embryonic fibroblast-like preadipocytes cell line) were propagated in Dulbecco's Modified Eagle Medium (DMEM), enriched with 10% newborn calf serum (CS) at 37° C. and 5% CO2 and seeded in 48-well plates for lipid quantification. After reaching confluence at day −2 the differentiation was induced by changing medium at day 0 to DMEM with 10% fetal calf serum (FCS) containing a hormone mix (HM) of 1 μg/ml insulin, 0.25 μM dexamethasone (Dex) and 0.5 mM 3-isobutyl-1-methylxanthine (IBMX).
Compounds of interest such as compound of formula (I) are applied from day −2 (confluence of the cells) until day 2 using various concentrations. Medium is renewed every other day. At day 2, medium consisting of DMEM, 10% FCS and 1 μg/ml insulin is added. From day 4 on, only DMEM containing 10% FCS is used for further cultivation of cells. At day 10, quantification of the intracellular lipid droplets is performed by addition of the fluorescent dye Nile Red (9-diethylamino-5H-benzo[alpha]phenoxazine-5-one) for 20 minutes at 37° C. and 5% CO2. Fluorescence (RFU) is detected with excitation at 485 nm and emission at 535 nm.
Stimulation of the adipogenesis in the presence of the compounds of interest is calculated according to the following equation:
[formula] wherein • RFU test substance=Relative Fluorescence Units of the wells with test substance and with cells • RFU control=Relative Fluorescence Units of the wells stimulated with hormone mix only. • RFU without cells=Relative Fluorescence Units of the wells containing Nile Red only, without cells.

For `CCCc1cc(OC)c2c(c1)C(C)C(c1ccc(O)c(OC)c1)O2` (centres unmarked) [compound of formula (I), 2-Methoxy-4-(7-methoxy-3-methyl-5-propyl-2,3-dihydro-benzofuran-2-yl)-phenol], the results for the “Stimulation of expression at day 2, FABP4” value in assay [1] (1 μM) and in assay [1] (10 μM) were 2.1 and 3.3, respectively. Besides, the Stimulation of adipogenesis in assay [2] (0.01 μM) is 18; in assay [2] (0.1 μM) it was 30; in assay [2] (0.25 μM), 35; in assay [2] (0.5 μM), 38; in assay [2] (0.75 μM), 48; in assay [2] (1 μM), 49. The Stimulation of adipogenesis is listed as 48 in assay [2] (2.5 μM), 37 in assay [2] (5 μM) and 22 in assay [2] (10 μM).

The record behind these values is US9066880B2, “Use of dihydrodehydrodiisoeugenol and preparations comprising dihydrodehydrodiisoeugenol” (SYMRISE AG, priority 2010, dated 2015).
